Publication PMC9374667 (Communications Biology, 2022)
“And” between values parts separate entries of the source, which are not always exact repeats. Equal values may be shown once.

Columns and labels:
Format in all cases: in vivo
db/db mice [1] = experiment: Body weight of db/db mice during 35-day treatment
Method: The lean wild type control and the db/db control mice were given equal vehicle volume (0.5% CMC-Na solution). All mice were monitored for food intake, body weight, and fasting blood glucose during the 35-day trial. Glucose tolerance test (GTT) and insulin resistance test (ITT) were performed at 4 and 5 weeks of treatment, respectively. Metabolic analysis was performed at 5 weeks of treatment. At the end of the study, blood samples were taken through the retroorbital venous sinus of mice, fat depots (brown fat, inguinal subcutaneous fat, epididymal fat, perirenal fat and mesenteric fat depot) were dissected, weighed, and immediately frozen in liquid nitrogen and stored at −80 °C until required. Weight of fat depots are expressed in percentage (fat depots weight /bodyweight * 100%).

db/db mice [2] = experiment: Serum CHO, TG, FFA, LDL-C, HDL-C and ADPN in the fasted state
Method: The serum was collected by centrifugation at 3000 × g at 4 °C for 15 min and stored at −80 °C until analysis. TG, TC, LDL-C, HDL-C, and FFA were routinely tested on a Chemray 240 automatic biochemical analyzer (Chemray 240, Shenzhen, China). Serum levels of mouse adiponectin, interleukin6 (IL-6), tumor necrosis factor-α (TNF-α) were measured using commercial enzyme-linked immunosorbent assay (ELISA) kits (Nanjing Jiancheng Bioengineering Institute, Nanjing, China) and according to the manufacturer’s instructions. The levels of IL-6, TNF-α in 3T3-L1 adipocyte culture supernatant were also detected by ELISA.

db/db mice [3] = experiment: HE staining of epididymal adipose tissue, adipocyte size; conditions: BJ 75 and 150 mg/kg, BBR 150 mg/kg, Ibu 150 mg/kg
Method: The adipose tissue was fixed overnight in 4% paraformaldehyde, then embedded in paraffin and cut into 5 µm thick slices. Tissue sections were stained with hematoxylin and eosin (H&E). For immunohistochemistry, sections were incubated with primary antibodies against F4/80 (1:100 dilution) diluted in the blocking solution at 4 °C overnight. The tissue sections were then incubated with the horseradish peroxidase (HRP)-conjugated secondary antibody at room temperature for 2 h. Finally, the sections were developed with diaminobenzidine (DAB) and counterstained with hematoxylin. Images were obtained under a microscope. To quantify the F4/80-positive macrophages, two random fields per sample were analyzed by Image J software. The IHC profiler plugin of ImageJ was used to calculate the F4/80 positive area.

[4] = 150mg/kg, serum, individual animals
[5] = db/db mice, vs vehicle, BJ 75 and 150 mg/kg, BBR 150 mg/kg, Ibu 150 mg/kg

Q: Which “Body weight” value (db/db mice [1]; 150mg/kg, day 1, individual animals, in g (unit assumed)) does the source give for CC(C)Cc1ccc(C(C)C(=O)O)cc1 (stereo not shown) [Ibu, Ibuprofen, reference compound] here?
A: The value was 38.2 and 39.7.

Q: And the “Body weight” value (db/db mice [1]; 150mg/kg, day 4, individual animals, in g (unit assumed))?
A: Its value is 40.6 and 39.7.

Q: What about the “Body weight” value (db/db mice [1]; 150mg/kg, day 19, individual animals, in g (unit assumed)) of the same compound?
A: Its value is 48.2.

Q: What about the “Body weight” value (db/db mice [1]; 150mg/kg, day 22, individual animals, in g (unit assumed)) of the same compound?
A: The value was 50.5.

Q: What about the “Body weight” value (db/db mice [1]; 150mg/kg, day 25, individual animals, in g (unit assumed)) of the same compound?
A: Its value is 51.6 and 48.5.

Q: And the “Body weight” value (db/db mice [1]; 150mg/kg, day 28, individual animals, in g (unit assumed))?
A: The value was 49.3 and 49.1 and 52.6 and 48.8 and 51.3.

Q: What about the “Body weight” value (db/db mice [1]; 150mg/kg, day 31, individual animals, in g (unit assumed)) of the same compound?
A: The value was 48.5 and 50.3 and 53 and 48.8 and 51.4.

Q: And the “Body weight” value (db/db mice [1]; 150mg/kg, day 34, individual animals, in g (unit assumed))?
A: The value was 51.2 and 54.1 and 50.2 and 52.2.

Q: And the “Body weight gain (day 34 minus day 1)” value (db/db mice [1]; 150mg/kg, individual animals, in g (unit assumed))?
A: Its value is 12.5 and 9.1 and 9.9 and 9.2 and 12.8 and 12.

Q: And the “Body weight compared with vehicle” value (db/db mice [1]; db/db mice, 5 weeks, BJ 75 and 150 mg/kg, BBR 150 mg/kg, Ibu 150 mg/kg)?
A: Its value is “did not observe any significant difference in body weight”.

Q: What about the CHO (db/db mice [2]; [4]) of the same compound?
A: The CHO was 4.079 mmol/L and 3.798 mmol/L and 4.949 mmol/L and 5.236 mmol/L and 4.727 mmol/L and 4.145 mmol/L.

Q: What about the FFA (db/db mice [2]; [4]) of the same compound?
A: The FFA was 912.261 µmol/L and 870.411 µmol/L and 861.968 µmol/L and 886.564 µmol/L and 965.859 µmol/L and 978.341 µmol/L.

Q: What about the HDL-C (db/db mice [2]; [4]) of the same compound?
A: Its HDL-C is 1.7462 mmol/L and 1.7831 mmol/L and 1.9083 mmol/L and 2.0311 mmol/L.

Q: And the LDL-C (db/db mice [2]; [4])?
A: Its LDL-C is 5.9624 mmol/L and 6.6672 mmol/L and 7.0004 mmol/L and 6.9602 mmol/L and 5.8098 mmol/L and 6.6236 mmol/L.

Q: What about the “Mouse ADPN” value (db/db mice [2]; [4]) of the same compound?
A: The value was 593.01 ng/mL and 440.43 ng/mL and 462.23 ng/mL and 556.39 ng/mL and 491.43 ng/mL and 431.93 ng/mL.

Q: What about the TG (db/db mice [2]; [4]) of the same compound?
A: Its TG is 1.761 mmol/L and 1.861 mmol/L and 1.959 mmol/L and 1.91 mmol/L and 1.579 mmol/L and 1.279 mmol/L.

Q: And the “Serum levels of CHO, TG, FFA and LDL-C” value (db/db mice [2]; [5])?
A: The value was “not significantly different”.

Q: What about the “Serum levels of HDL-C and adiponectin (ADPN)” value (db/db mice [2]; [5]) of the same compound?
A: Its value is “not significantly different”.

Q: And the “Size of adipocytes in eWAT compared with vehicle” value (db/db mice [3])?
A: The value was “not significantly different”.
